Counter-ions that a name gives are not always drawn. One block for each molecule: values may come before it.
What was measured:
[1] = test system: Rab2 wt, Rab7 wt, Cdc42 wt, Cdc42Q61L, H-Ras wt, H-RasG12V, Rac1 wt and Rac1Q61L; test: Primary multiplex screen, BODIPY-FL-GTP binding on bead-bound GTPases (flow cytometry); conditions: for Primary Screen Hit: single dose 10 µM, change in BODIPY-GTP binding on any one GTPase; for primary screen outcome: 10 μM compound
[2] = test system: Rac1 membrane localization; test: Rac1 immunolocalization, OvCa433 cells; assay type: cell-based, human; conditions: for Rac1 membrane localization: 300 μM; for Rac PM Localiz.: immunofluorescence quantified using ImageJ
[3] = molecular target: Rac1 wt (Homo sapiens, UniProt P63000); test: Dose response, BODIPY-GTP binding; conditions: 10 nM to 100 µM
[4] = molecular target: H-Ras wt (Homo sapiens, UniProt P01112); test: Dose response, BODIPY-GTP binding; conditions: 10 nM to 100 µM
Procedure: (§1) For multiplex analyses of small GTPases, 4 μm diameter glutathione-beads (GSH-beads) distinguished by seven different intensities of red fluorescence were used according to our previously described protocols. The GST-GTPases included the following eight Ras-related small GTPases: Rab2 wt, Rab7 wt, Cdc42 wt, Cdc42Q61L activating mutant, H-Ras wt, H-RasG12V, Rac1 wt and Rac1Q61L activating mutant. Briefly, Prestwick Chemical Library® compounds were tested at 10 μM compound and 1% DMSO final concentrations. After a 10 min pre-incubation with the compound BODIPY- FL-GTP (100 nM final) was added to each well and bead associated fluorescence was measured. Sample analysis was conducted with a HyperCyt® high throughput flow cytometry platform. Flow cytometric light scatter at 488 nm and fluorescence emission at 530 +/− 20 nm (FL1) and 665 +/− 10 nm (FL8) were collected on a Cyan ADP flow cytometer (Beckman Coulter, Fullerton, CA). IDLQuery software was used to determine the compound activity in each well. Gating based on forward scatter (FS) and side scatter (SS) parameters was used to identify singlet bead populations. Gating based on FL8 emission distinguishes the beads coated with different proteins, and the median FL1 fluorescence per bead population were calculated. A compound was considered a “potential active” if the change in BODIPY-FL-GTP binding differed greater than 20% from that measured in DMSO treated controls.
(§2) Test compounds identified for follow-up after the primary screen were tested at dilutions ranging from 10 nM to 100 μM final concentration against individual GTPases in multiplex and single-plex assays. Compounds tested in dose response assays were serially diluted 1:3 a total of eight times from a starting concentration of 10 mM giving a 9-point dilution series in DMSO.
(§3) bConfirmatory screens entailed dose response assays conducted in a multiplex format with eight GTPases tested as for primary screen. BODIPY-GTP-binding activity was
(§4) measured in the presence of 10 nM to 100 µM of each of 11 test compounds (4 primary screen hits and 7 additional NSAIDs considered to have chemical similarity to GTPase
(§5) active compounds). GST-GFP coated beads served as a control to detect non-specific dissociation or denaturation caused by compound addition–none of the tested NSAIDs had
(§6) any effect on bead-GST-protein binding. EC50 values were determined using Prism to determine dose response fits as shown in Figure 1 of main text; fits have R2 > 0.9. Active
(§7) compounds based on same definition used as in primary screena. […]

[5] = molecular target: Rab7 (Homo sapiens, UniProt P51149); test: Dose response, BODIPY-GTP binding; conditions: 10 nM to 100 µM
Sequence of Rab7 (P51149 whole entry, species assumed): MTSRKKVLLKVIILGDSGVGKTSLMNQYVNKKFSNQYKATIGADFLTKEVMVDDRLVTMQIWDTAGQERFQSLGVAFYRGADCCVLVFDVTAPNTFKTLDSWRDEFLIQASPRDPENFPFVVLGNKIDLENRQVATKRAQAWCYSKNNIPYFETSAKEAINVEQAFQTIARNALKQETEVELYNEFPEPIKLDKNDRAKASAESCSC

[6] = molecular target: Cdc42Q61L activating mutant (Homo sapiens, UniProt P60953, Q61L); test: Dose response, BODIPY-GTP binding; conditions: 10 nM to 100 µM; read-out: Cdc42 (act) EC50
Sequence of Cdc42Q61L activating mutant (P60953 whole entry Q61L): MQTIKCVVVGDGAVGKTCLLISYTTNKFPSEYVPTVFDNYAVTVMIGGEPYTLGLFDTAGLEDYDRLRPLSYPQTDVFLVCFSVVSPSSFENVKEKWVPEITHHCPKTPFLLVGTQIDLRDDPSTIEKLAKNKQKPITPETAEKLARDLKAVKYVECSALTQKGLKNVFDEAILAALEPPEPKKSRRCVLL

[7] = molecular target: Rab2 (Homo sapiens, UniProt P61019); test: Dose response, BODIPY-GTP binding; conditions: 10 nM to 100 µM
Sequence of Rab2 (P61019 whole entry, species assumed): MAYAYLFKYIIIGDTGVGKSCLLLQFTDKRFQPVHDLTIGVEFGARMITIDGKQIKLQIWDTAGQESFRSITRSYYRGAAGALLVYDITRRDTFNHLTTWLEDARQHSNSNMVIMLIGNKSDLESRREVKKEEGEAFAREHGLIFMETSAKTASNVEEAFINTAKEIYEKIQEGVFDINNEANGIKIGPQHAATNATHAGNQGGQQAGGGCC

[8] = molecular target: Rac1Q61L activating mutant (Homo sapiens, UniProt P63000, Q61L); test: Dose response, BODIPY-GTP binding; conditions: 10 nM to 100 µM; read-out: Rac1 (act) EC50
[9] = molecular target: Cdc42 wt (Homo sapiens, UniProt P60953); test: Dose response, BODIPY-GTP binding; conditions: 10 nM to 100 µM
Sequence of Cdc42 wt (P60953 whole entry): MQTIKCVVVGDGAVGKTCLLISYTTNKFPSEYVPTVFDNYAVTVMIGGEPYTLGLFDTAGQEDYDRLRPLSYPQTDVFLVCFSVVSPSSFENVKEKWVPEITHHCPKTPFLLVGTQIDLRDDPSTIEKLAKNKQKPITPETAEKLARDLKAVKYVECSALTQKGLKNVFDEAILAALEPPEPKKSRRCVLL

[10] = test system: Ras-related GTPases; test: Confirmatory dose response assays on eight Ras-related GTPases; assay type: binding; conditions: for activity against the GTPases in confirmatory dose response assays (words): 10 nM to 100 µM
Procedure: as §1, §2, §3, §4, §5, §6, §7
(§8) ‡A well-characterized selective Cdc42 inhibitor served as a positive control.

[11] = molecular target: H-RasG12V (Homo sapiens, UniProt P01112, G12V); test: Dose response, BODIPY-GTP binding; conditions: 10 nM to 100 µM
Procedure: as §1, §2, §3, §4, §5, §6, §7, §8

[12] = molecular target: T1, Rac1 (Homo sapiens, UniProt P63000); test: G-trap flow cytometric effector binding assay, HeLa cells; assay type: cell-based; conditions: ketorolac enantiomers
T1 construct: endogenous in cells; host or cells: HeLa

[13] = molecular target: T2, Cdc42 (Homo sapiens, UniProt P60953); test: as above; assay type: cell-based; conditions: ketorolac enantiomers, EGF stimulation, read-out: EC50 against Cdc42
T2 construct: endogenous in cells; host or cells: HeLa
T2 sequence (P60953 whole entry): as above

[14] = molecular target: T3, human COX-2 (Homo sapiens, UniProt P35354); test: Cyclooxygenase assay (CEREP), PGE2 formation; assay type: biochemical; conditions: recombinant enzyme, 4 μM arachidonic acid
T3 construct: purchased CEREP Laboratories (contract assay); host or cells: Sf-9
T3 sequence (P35354 18-604): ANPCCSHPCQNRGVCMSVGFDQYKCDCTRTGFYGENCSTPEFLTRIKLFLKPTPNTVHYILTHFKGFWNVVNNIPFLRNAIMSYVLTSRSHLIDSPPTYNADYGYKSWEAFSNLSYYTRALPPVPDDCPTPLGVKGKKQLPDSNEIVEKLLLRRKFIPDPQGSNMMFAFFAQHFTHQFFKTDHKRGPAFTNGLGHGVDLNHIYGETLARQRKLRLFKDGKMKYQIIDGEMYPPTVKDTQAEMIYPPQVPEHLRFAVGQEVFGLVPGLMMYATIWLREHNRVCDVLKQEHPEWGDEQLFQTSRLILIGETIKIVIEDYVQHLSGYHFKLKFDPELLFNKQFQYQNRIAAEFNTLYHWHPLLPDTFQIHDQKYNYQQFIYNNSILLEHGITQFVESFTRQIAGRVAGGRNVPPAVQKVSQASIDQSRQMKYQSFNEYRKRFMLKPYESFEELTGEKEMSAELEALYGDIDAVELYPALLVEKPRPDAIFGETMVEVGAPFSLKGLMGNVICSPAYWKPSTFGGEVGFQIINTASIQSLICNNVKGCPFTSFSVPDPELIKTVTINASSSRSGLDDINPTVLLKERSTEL

[15] = molecular target: T4, human COX-1 (Homo sapiens, UniProt P23219); test: Cyclooxygenase assay (CEREP), PGE2 formation; assay type: biochemical
T4 construct: purchased CEREP Laboratories (contract assay); host or cells: Sf-9
T4 sequence (P23219 24-599): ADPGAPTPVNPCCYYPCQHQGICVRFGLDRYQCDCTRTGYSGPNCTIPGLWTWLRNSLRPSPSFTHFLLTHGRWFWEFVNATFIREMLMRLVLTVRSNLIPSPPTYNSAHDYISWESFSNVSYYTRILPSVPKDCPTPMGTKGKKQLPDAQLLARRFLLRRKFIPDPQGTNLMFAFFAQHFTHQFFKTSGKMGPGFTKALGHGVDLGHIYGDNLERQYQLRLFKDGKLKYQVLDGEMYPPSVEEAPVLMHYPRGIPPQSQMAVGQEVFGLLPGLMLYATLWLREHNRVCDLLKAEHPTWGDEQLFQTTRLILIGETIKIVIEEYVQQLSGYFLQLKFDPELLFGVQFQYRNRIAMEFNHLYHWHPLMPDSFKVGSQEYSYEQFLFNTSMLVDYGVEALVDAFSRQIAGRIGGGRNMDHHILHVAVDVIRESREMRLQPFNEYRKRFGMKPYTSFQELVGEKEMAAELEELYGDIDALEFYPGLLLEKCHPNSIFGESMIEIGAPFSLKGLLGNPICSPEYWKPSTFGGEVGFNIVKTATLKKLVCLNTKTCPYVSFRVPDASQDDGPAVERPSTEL

[16] = molecular target: T5, Cdc42 (Mus musculus, UniProt P60766); test: GLISA, Swiss 3T3 cells; assay type: cell-based; conditions: at 10 μM
T5 construct: endogenous in cells; host or cells: Swiss 3T3
T5 sequence (P60766 whole entry): as the sequence (P60953 whole entry) above

[17] = test system: migration Rac1/Cdc42 dependent; test: Migration IC50 (Table F); assay type: cell-based; conditions: ketorolac, calculated by GraphPad Prism5; read-out: IC50 migration Rac1/Cdc42 dependent (est)
[18] = molecular target: T6, Rac1 (Mus musculus, UniProt P63001); test: GLISA, Swiss 3T3 cells; assay type: cell-based; conditions: at 50 μM
T6 construct: endogenous in cells; host or cells: Swiss 3T3

[19] = IV dose of 30 mg; cited from earlier work
[20] = test system: Rac1 and Tiam1 protein levels; test: Immunoblot of protein levels; assay type: cell-based, human
Procedure: Cells were stimulated with EGF at a final concentration of 1 nM for 10 min. Cells were lysed in a RIPA buffer consisting of 50 mM Tris pH 7.4, 1% NP-40, 0.25% sodium deoxycholate, 150 mM NaCl, 1 mM EDTA, 1 mM PMSF, 1 mM sodium vanadate, 10 mM sodium fluoride, 1 μg/mL each of pepstatin, aprotinin and leupeptin, 10 mM sodium pyrophosphate and 10 mM beta-glycerophosphate.
N = 3. See also Figure D in S1 File for time dependent loss of Rac1 membrane localization. N = 3 (B) Quantification of image intensity using Image J of 3 representative confocal images as shown in panel (A) containing 20–30 cells/field normalized to actin and untreated controls. (C) Western blot analyses of lysates from cells treated with 300 μM compound as indicated for 24 h as compared to untreated controls. […] Blots were probed for Tiam1 (200 kDa), GAPDH (37 kDa), Rac1 (20 kDa), as a loading control. (D) Quantification of image intensity using Image J. Each marker was normalized to GAPDH and untreated controls. N = 3.

[21] = test system: Tiam1 membrane localization; test: Tiam1 immunolocalization, OvCa433 cells; assay type: cell-based, human
Procedure: OvCa433 were plated on coverslips, treated with 300 μM NSAIDs for 1 h, fixed with 3% paraformaldehyde and immunostained for Rac1 or Tiam1. Actin was visualized with rhodamine phalloidin from Invitrogen (F432). Cells were imaged on a Zeiss LSM510 using a 63x objective and quantified using Image J.
Rac1 and Tiam1 antibodies were confirmed in our hands to recognize single protein species of the predicted molecular weight by immunoblot.

[22] = assays performed with 0.1% DMSO

Primary Screen Hit [1]: Inactive
SMILES: CC(=O)Nc1ccc(O)cc1 [Acetaminophen]

SMILES: CC(C(=O)O)c1cccc(C(=O)c2ccccc2)c1 (centres unmarked) [Ketoprofen]
Rac1 membrane localization [2]: did not alter | Rac PM Localiz. [2, 22]: 45%

Rac1 wt EC50 [3]: Inactive | primary screen outcome [1]: positive | Primary Screen Hit [1]: Active
SMILES: CC(C(=O)O)c1cccc(Oc2ccccc2)c1 (centres unmarked) [Fenoprofen]
Rac1 membrane localization [2]: did not alter

SMILES: CC(C)Cc1ccc(C(C)C(=O)O)cc1 (centres unmarked) [ibuprofen]
Rac1 membrane localization [2]: did not alter

Primary Screen Hit [1]: Inactive
SMILES: CC(=O)Oc1ccccc1C(=O)Oc1ccccc1C(=O)O [Acetylsalicylsalicylic acid]

H-Ras wt EC50 [4]: inactive | EC50 [3]: 54 µM | Rab7 EC50 [5]: inactive | EC50 [6]: 48.6 µM | Rab2 EC50 [7]: inactive | EC50 [8]: 53 µM | EC50 [9]: > 100 µM | H-Ras (act) EC50 [11]: inactive
SMILES: CSc1ccc(/C=C2/C(C)=C(CC(=O)O)c3cc(F)ccc32)cc1 [Sulindac sulfide]
activity against the GTPases in confirmatory dose response assays (words) [10]: varying activity levels

Primary Screen Hit [1]: Inactive
SMILES: CC(C(=O)O)c1ccc(C(=O)c2cccs2)cc1 (centres unmarked) [Suprofen]

SMILES: Cc1ccc(-c2cc(C(F)(F)F)nn2-c2ccc(S(N)(=O)=O)cc2)cc1 [Celecoxib]
activity against the GTPases in confirmatory dose response assays (words) [10]: inactive

SMILES: CC(C)Cc1ccc([C@H](C)C(=O)O)cc1 [S-(+)-Ibuprofen, (S)-(+)-Ibuprofen]
H-Ras wt EC50 [4]: inactive | primary screen outcome [1]: positive | Primary Screen Hit [1]: Active | EC50 [6]: 6.41 µM | Cdc42 wt EC50 [9]: inactive | Rac PM Localiz. [2, 22]: 78% | H-Ras (act) EC50 [11]: inactive

efficacy against Rac1 [12]: < 50% | EC50 [13]: > 10 µM | IC50 [14]: 0.085 µM | eudismic ratio (EC50/EC50) ([15]; for cyclooxygenases, S-enantiomer relative to R-enantiomer): 100 | IC50 ([15]; recombinant enzyme, 4 μM arachidonic acid): < 0.01 µM | inhibition of Cdc42 [16]: non-inhibitory | IC50 [17]: > 100 µM | inhibition of Rac1 [18]: non-inhibitory
SMILES: O=C(c1ccccc1)c1ccc2n1CC[C@@H]2C(=O)O [S-ketorolac]

SMILES: CC(=O)Oc1ccccc1C(=O)O [Acetylsalicylic acid]
Rac1 membrane localization [2]: did not alter

Primary Screen Hit [1]: Inactive
SMILES: Cc1ccc(C(=O)c2ccc(CC(=O)O)n2C)cc1 [Tolmetin sodium salt dihydrate]

effect on Cdc42 relative to R-ketorolac [16]: approximately half the effect | IC50 [17]: 34 µM
SMILES: O=C(c1ccccc1)c1ccc2n1CCC2C(=O)O (racemic) [racemic ketorolac, ketorolac]
Cmax [19]: 13.7 µM

SMILES: Cc1c(Cl)cccc1Nc1ccccc1C(=O)O [Tolfenamic acid]
Primary Screen Hit [1]: Inactive

SMILES: Cc1onc(-c2ccccc2)c1-c1ccc(S(N)(=O)=O)cc1 [Valdecoxib]
activity against the GTPases in confirmatory dose response assays (words) [10]: inactive

Primary Screen Hit [1]: Inactive
SMILES: CC1=C(CC(=O)O)c2cc(F)ccc2/C1=C\c1ccc([S+](C)[O-])cc1 (centres unmarked) [Sulindac]

SMILES: COc1ccc2cc([C@H](C)C(=O)O)ccc2c1 [S-naproxen]
H-Ras wt EC50 [4]: inactive | Rab7 EC50 [5]: inactive | Rab2 EC50 [7]: inactive | times less active than the R-enantiomer [10]: 10–20 times | activity against the GTPases in confirmatory dose response assays (words) [10]: varying activity levels | total Rac1 or Tiam1 protein levels ([20]; 300 μM, 24 h, immunoblot): did not alter | Rac protein expression ([20]; immunoblot analysis): No change | Rac1 membrane localization [2]: no effect | Rac PM Localiz. [2]: 87% | H-Ras (act) EC50 [11]: inactive | Tiam1 membrane localization ([21]; 300 μM): only slightly reduced | Tiam1 GEF PM localiz. ([21]; immunofluorescence quantified using ImageJ): 65%

SMILES: CN1C(C(=O)Nc2ccccn2)=C(O)c2ccccc2S1(=O)=O [Piroxicam]
Primary Screen Hit [1]: Inactive

SMILES: O=C(O)Cc1ccccc1Nc1c(Cl)cccc1Cl [Diclofenac sodium]
Primary Screen Hit [1]: Inactive

SMILES: CC(C(=O)O)c1ccc(C(=O)c2ccccc2)s1 (centres unmarked) [Tiaprofenic acid]
Primary Screen Hit [1]: Inactive

SMILES: O=C(O)c1cc(-c2ccc(F)cc2F)ccc1O [Diflunisal]
Primary Screen Hit [1]: Inactive

Reference: article PMC4641600, “Novel Activities of Select NSAID R-Enantiomers against Rac1 and Cdc42 GTPases” (PLoS ONE, 2015)
